The supplement of paper PMC10307832

Key:
Assay in all cases: relative viability (nuclei count vs DMSO), 5 days (fraction); higher = more cells survive
[1] = compound: CCN1CCN(c2ccc(Nc3cc(N(C)C(=O)Nc4c(Cl)c(OC)cc(OC)c4Cl)ncn3)cc2)CC1 [BGJ398] + COc1cccc2cc(-c3nc([C@H]4CC[C@H](C(=O)O)CC4)n4ncnc(N)c34)[nH]c12 [OSI-027] (partner 0.5 µM)
Procedure, shortened: (§1)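 The day after seeding in 1536-well plates, lung cancer cell lines were treated by pin tool with a single drug, or with a fixed anchor-drug dose together with five library-drug doses (not always all listed) in √10 steps. After 5 days, a combined fix-and-stain solution (final 0.05% Triton X-100, 1% formaldehyde, 1 ug/ml Hoechst) was added. Nuclei counted on 4× images gave relative viability as treated counts over vehicle counts, reported as the median of duplicate plates.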

[2] = compound: CCN1CCN(c2ccc(Nc3cc(N(C)C(=O)Nc4c(Cl)c(OC)cc(OC)c4Cl)ncn3)cc2)CC1 [BGJ398] + CC(=O)Nc1cccc(-n2c(=O)n(C3CC3)c(=O)c3c(Nc4ccc(I)cc4F)n(C)c(=O)c(C)c32)c1 [Trametinib] (partner 0.02 µM)
Procedure, shortened: as §1

[3] = compound: C1=CC2=NC=CN=C2C=C1/C=C/3\C(=O)NC(=O)S3 + O=C(c1cc(Cc2n[nH]c(=O)c3ccccc23)ccc1F)N1CCN(C(=O)C2CC2)CC1 [Olaparib] (partner 8 µM)
Procedure, shortened: as §1

[4] = compound: CCN1CCN(c2ccc(Nc3cc(N(C)C(=O)Nc4c(Cl)c(OC)cc(OC)c4Cl)ncn3)cc2)CC1 [BGJ398] + C[C@@H](Oc1cc(-c2cnn(C3CCNCC3)c2)cnc1N)c1c(Cl)ccc(F)c1Cl [Crizotinib] (partner 1 µM)
Procedure, shortened: as §1

Cell Line	relative viability ([1]; first compound 0.01 µM)	relative viability ([1]; first compound 0.03162 µM)	relative viability ([1]; first compound 0.1 µM)	relative viability ([1]; first compound 0.3162 µM)	relative viability ([1]; first compound 1 µM)	relative viability ([2]; first compound 0.01 µM)	relative viability ([2]; first compound 0.03162 µM)	relative viability ([2]; first compound 0.1 µM)	relative viability ([2]; first compound 0.3162 µM)	relative viability ([2]; first compound 1 µM)	relative viability ([3]; first compound 0.02 µM)	relative viability ([3]; first compound 0.06325 µM)	relative viability ([3]; first compound 0.2 µM)	relative viability ([3]; first compound 0.6325 µM)	relative viability ([3]; first compound 2 µM)	relative viability ([4]; first compound 0.01 µM)	relative viability ([4]; first compound 0.03162 µM)	relative viability ([4]; first compound 0.1 µM)	relative viability ([4]; first compound 0.3162 µM)	relative viability ([4]; first compound 1 µM)
HCC-15	0.689	0.72	0.693	0.675	0.554	0.331	0.401	0.378	0.433	0.393	0.699	0.612	0.71	0.675	0.634	0.861	0.825	0.782	0.885	0.9
HCC-44	0.6	0.591	0.598	0.51	0.473	1.01	1.03	1.03	1.04	0.949	0.9	1.07	0.924	0.965	0.945	0.751	0.738	0.86	0.817	0.701
COR-L23	0.787	0.88	0.848	0.667	0.8	0.512	0.64	0.63	0.486	0.68	0.273	0.383	0.323	0.401	0.36	0.588	0.826	0.598	0.762	0.653
HCC-78	0.369	0.348	0.346	0.349	0.366	0.55	0.868	0.858	0.696	0.619	0.792	0.72	0.786	0.861	0.619	0.379	0.313	0.394	0.334	0.348
NCI-H727	0.595	0.791	0.543	0.519	0.745	0.417	0.412	0.381	0.389	0.385	0.852	0.579	0.637	0.695	0.538	0.809	0.853	0.795	0.857	0.711
NCI-H2087	0.359	0.639	0.587	0.63	0.546	0.142	0.22	0.188	0.197	0.189	0.484	0.646	0.57	0.631	0.447	0.923	0.831	0.865	0.911	0.863
BEN	0.319	0.259	0.279	0.266	0.276	0.84	1.02	1.03	0.899	0.952	1.09	1.05	1.02	1.12	1.03	0.735	0.871	0.893	0.81	0.797
LCLC-103H	0.495	0.406	0.44	0.367	0.382	0.703	0.623	0.65	0.642	0.535	0.75	0.788	0.727	0.725	0.729	1.02	1.03	1.03	0.96	0.827
EKVX	0.628	0.679	0.72	0.703	0.69	0.326	0.336	0.368	0.261	0.359	0.668	0.828	0.824	0.812	0.838	0.819	0.919	0.901	0.991	0.917
LXF-289	0.708	0.795	0.806	0.768	0.799	0.567	0.649	0.672	0.563	0.593	0.993	0.997	1.06	1.01	1.01	0.817	0.764	0.761	0.705	0.637
NCI-H650	0.477	0.519	0.535	0.505	0.503	0.927	1.04	1.08	0.963	0.959	0.422	0.397	0.466	0.444	0.267	0.57	0.791	0.808	0.857	0.727
NCI-H1650	0.487	–	0.56	0.273	0.396	0.503	0.568	0.471	0.304	0.25	0.689	0.825	0.845	0.735	0.927	0.955	1.01	0.862	0.879	0.937
NCI-H2085	0.706	0.673	0.84	0.663	0.807	0.498	0.525	0.505	0.705	0.502	0.813	0.73	0.798	0.821	0.754	0.836	0.871	1.05	0.892	1.01
LC-2-ad	0.763	0.935	0.832	0.779	0.829	0.912	0.935	0.892	0.873	0.985	0.63	0.811	0.692	0.611	0.344	0.446	0.451	0.444	0.487	0.476
COR-L 105	0.644	0.441	0.704	0.519	0.654	0.423	0.431	0.444	0.399	0.431	0.674	0.711	0.701	0.819	0.723	0.737	0.844	0.879	0.86	0.819
NCI-H1355	0.356	0.408	0.428	0.413	0.315	0.374	0.44	0.452	0.382	0.329	0.656	0.766	0.77	0.699	0.726	1.01	1.02	1.03	0.962	1.08
H3255	0.493	–	0.676	0.37	0.602	0.61	–	0.702	–	0.707	0.583	0.509	0.56	0.594	0.517	0.798	–	0.877	0.634	0.829
NCI-H1993	0.525	0.535	0.564	0.507	0.649	0.447	0.524	0.596	0.441	0.595	0.976	1.06	1.05	1.05	0.182	0.866	0.794	0.912	0.959	0.922
NCI-H1734	0.589	0.645	0.675	0.579	0.702	0.591	0.657	0.54	0.42	0.381	0.613	–	0.673	0.562	0.226	0.611	0.647	0.719	0.594	0.554
HOP-62	0.792	0.986	0.916	0.83	0.889	0.395	0.364	0.359	0.291	0.288	0.481	0.389	0.357	0.452	0.424	0.755	1	0.861	1.13	0.737
LOU-NH91	0.667	–	0.734	0.478	0.728	0.718	0.689	0.779	0.705	0.759	0.845	0.925	0.892	0.883	0.85	0.724	0.506	0.688	0.569	0.728
ChaGo-K-1	0.512	0.491	0.567	0.548	0.435	0.876	0.914	0.871	0.922	0.929	0.385	0.351	0.431	0.412	0.412	1.09	1.18	1.21	0.991	1.05
NCI-H2228	0.525	0.535	0.67	0.501	0.717	0.42	0.694	0.503	0.348	0.419	0.666	0.599	0.616	0.654	0.649	0.433	0.64	0.319	0.252	0.347
PC-14	0.781	0.16	1.07	0.464	1.07	0.762	0.821	0.735	–	0.903	0.25	0.363	0.263	0.227	0.277	0.925	0.883	0.859	0.937	0.898
NCI-H1437	0.807	0.867	0.873	0.865	0.926	0.59	0.508	0.559	0.519	0.393	0.584	0.648	0.623	0.643	0.653	0.91	0.924	0.941	1.02	0.877
NCI-H460	0.63	0.733	0.81	0.642	0.719	0.0671	0.131	0.209	0.13	0.0628	0.391	0.361	0.438	0.45	0.397	0.59	0.861	1.02	0.892	0.826
NCI-H1666	0.859	0.834	0.862	0.886	0.764	0.735	0.908	0.965	0.911	0.75	0.746	0.713	0.709	0.695	0.728	0.944	1.06	0.938	1.3	0.96
